Data as given in patent US20250179049A1, “SALTS OF HETEROCYCLIC INHIBITORS OF MONOCARBOXYLATE TRANSPORTER 4 FOR THE TREATMENT OF DISEASE” (Vettore, LLC, priority 2022, published 2025).
Where a name gives a salt, the structure may show the parent alone.

Columns and labels:
[1] = system: bleomycin-induced lung fibrosis; experiment: Bleomycin-induced lung fibrosis model; assay type: in vivo, mice; conditions: therapeutic mode; Compound 1 3 mg/kg BID; pirfenidone 100 mg/kg BID; nintedanib 50 mg/kg QD, oral gavage
Method: The reduction of lung fibrosis upon MCT4 inhibition is coupled with changes in serum metabolites that indicates turnover of extracellular matrix protein and increased fatty acid oxidation. […] The effects of Compound 1, alone or in combination with approved IPF drugs pirfenidone or nintedanib, were studied in the bleomycin-induced lung fibrosis model in therapeutic mode. Compound 1 was dosed at 3 mg/kg, BID; pirfenidone was dosed at 100 mg/kg, BID; and nintedanib was dosed at 50 mg/kg, QD, all via oral gavage.

[2] = Kinetic solubility in biorelevant media; assay type: physicochemical; conditions: for solubility at 1 h / solubility at 4 h / solubility at 24 h: thermodynamic from solid; for solubility at 1 h: t = 1 hour; for solubility at 4 h: t = 4 hours; for solubility at 24 h: t = 24 hours
[3] = Dynamic vapor sorption (DVS); assay type: physicochemical; conditions: 25° C.
Description: The Form B tris salt is an off-white crystalline powder consisting of small particles. […] (ΔH=111 J/g).

[4] = Solid-state stability of API, 2 weeks storage; assay type: physicochemical
Method: Stability of the solid API was assessed after storage at the following conditions for 2 weeks: • 25° C./58% RH (closed) • 25° C./58% RH (open) • 40° C./75% RH (closed) • 40° C./75% RH (open) • 80° C./ambient RH (closed)

[5] = fasted-state simulated gastric fluid (FaSSGF), fassgf or other biorelevant, FaSSGF pH 1.6, room temperature
[6] = fasted-state simulated intestinal fluid (FaSSIF), FaSSIF #2 pH 6.5, room temperature
[7] = fed-state simulated intestinal fluid (FeSSIF), FeSSIF #2 pH 5.8, room temperature

COC(=O)c1ccc2c(c1)NC(=O)/C2=C(\Nc1ccc(N(C)C(=O)CN2CCN(C)CC2)cc1)c1ccccc1 [nintedanib, reference compound]
Additive effect upon Ashcroft Score or αSMA quantitation when added to Compound 1 [1]: did not produce a statistically significant additive effect

Cc1ccc(=O)n(-c2ccccc2)c1 [pirfenidone, reference compound]
Additive effect upon Ashcroft Score or αSMA quantitation when added to Compound 1 [1]: did not produce a statistically significant additive effect

CC(C)(OCc1cc(-c2cccc(OC3CCC3)c2)n(-c2ccccc2N2CCC2)n1)C(=O)O [tris salt Form B]
Solubility description ([2]; FaSSGF after 1, 4 and 24 hours): practically insoluble
solubility at 1 h [2, 5]: 0.46 µg/mL
solubility at 4 h [2, 5]: 0.35 µg/mL
solubility at 24 h [2, 5]: 0.39 µg/mL
solubility ([2]; fasted-state simulated intestinal fluid (FaSSIF), pH 6.5, thermodynamic from solid, FaSSIF, before gradual decrease, read-out: Solubility, initial): ≥ 3000 µg/mL
solubility at 1 h [2, 6]: 1110 µg/mL
solubility at 4 h [2, 6]: 851 µg/mL
solubility at 24 h [2, 6]: 733 µg/mL
solubility kinetic ([2]; fed-state simulated intestinal fluid (FeSSIF), pH 5.8, thermodynamic from solid, FeSSIF, before precipitation, read-out: Kinetic solubility, initially in solution): ≥ 3000 µg/mL
solubility at 1 h [2, 7]: 99 µg/mL
solubility at 4 h [2, 7]: 96 µg/mL
solubility at 24 h [2, 7]: 95 µg/mL
Hygroscopicity ([3]; 5 to 95% RH): non-hygroscopic
Weight change ([3]; between 5 and 95% RH): approximately 0.1%
Content ([4]; 25° C. - 58% RH (c), 2 weeks): 101.1 % w/w
Impurity RRT 0.60 ([4]; 25° C. - 58% RH (c), 2 weeks): <0.05 % area
Impurity RRT 0.86 ([4]; 25° C. - 58% RH (c), 2 weeks): <0.05 % area
Impurity RRT 0.89 ([4]; 25° C. - 58% RH (c), 2 weeks): <0.05 % area
Impurity RRT 0.92 ([4]; 25° C. - 58% RH (c), 2 weeks): 0.13 % area
Impurity RRT 1.21 ([4]; 25° C. - 58% RH (c), 2 weeks): <0.05 % area
Main Peak ([4]; 25° C. - 58% RH (c), 2 weeks): 99.78 % Area
Total Impurities ([4]; 25° C. - 58% RH (c), 2 weeks): 0.22 % area
XRPD ([4]; 25° C. - 58% RH (c), 2 weeks): Consistent with Tris salt (Grp B)
Content ([4]; 25° C. - 58% RH (o), 2 weeks): 101.0 % w/w
Impurity RRT 0.60 ([4]; 25° C. - 58% RH (o), 2 weeks): <0.05 % area
Impurity RRT 0.86 ([4]; 25° C. - 58% RH (o), 2 weeks): <0.05 % area
Impurity RRT 0.89 ([4]; 25° C. - 58% RH (o), 2 weeks): <0.05 % area
Impurity RRT 0.92 ([4]; 25° C. - 58% RH (o), 2 weeks): 0.13 % area
Impurity RRT 1.21 ([4]; 25° C. - 58% RH (o), 2 weeks): <0.05 % area
Main Peak ([4]; 25° C. - 58% RH (o), 2 weeks): 99.78 % Area
Total Impurities ([4]; 25° C. - 58% RH (o), 2 weeks): 0.22 % area
XRPD ([4]; 25° C. - 58% RH (o), 2 weeks): Consistent with Tris salt (Grp B)
Chemical or physical changes on storage ([4]; 25° C./58% RH, 40° C./75% RH (closed and open), 80° C./ambient RH (closed), 2 weeks): No significant chemical or physical changes were observed
Content ([4]; 40° C. - 75% RH (c), 2 weeks): 101.3 % w/w
Impurity RRT 0.60 ([4]; 40° C. - 75% RH (c), 2 weeks): <0.05 % area
Impurity RRT 0.86 ([4]; 40° C. - 75% RH (c), 2 weeks): <0.05 % area
Impurity RRT 0.89 ([4]; 40° C. - 75% RH (c), 2 weeks): <0.05 % area
Impurity RRT 0.92 ([4]; 40° C. - 75% RH (c), 2 weeks): 0.13 % area
Impurity RRT 1.21 ([4]; 40° C. - 75% RH (c), 2 weeks): <0.05 % area
Main Peak ([4]; 40° C. - 75% RH (c), 2 weeks): 99.75 % Area
Total Impurities ([4]; 40° C. - 75% RH (c), 2 weeks): 0.25 % area
XRPD ([4]; 40° C. - 75% RH (c), 2 weeks): Consistent with Tris salt (Grp B)
Content ([4]; 40° C. - 75% RH (o), 2 weeks): 101.1 % w/w
Impurity RRT 0.60 ([4]; 40° C. - 75% RH (o), 2 weeks): <0.05 % area
Impurity RRT 0.86 ([4]; 40° C. - 75% RH (o), 2 weeks): <0.05 % area
Impurity RRT 0.89 ([4]; 40° C. - 75% RH (o), 2 weeks): <0.05 % area
Impurity RRT 0.92 ([4]; 40° C. - 75% RH (o), 2 weeks): 0.13 % area
Impurity RRT 1.21 ([4]; 40° C. - 75% RH (o), 2 weeks): <0.05 % area
Main Peak ([4]; 40° C. - 75% RH (o), 2 weeks): 99.77 % Area
Total Impurities ([4]; 40° C. - 75% RH (o), 2 weeks): 0.23 % area
XRPD ([4]; 40° C. - 75% RH (o), 2 weeks): Consistent with Tris salt (Grp B)
Content ([4]; 80° C. (c), 2 weeks): 101.0 % w/w
Impurity RRT 0.60 ([4]; 80° C. (c), 2 weeks): <0.05 % area
Impurity RRT 0.86 ([4]; 80° C. (c), 2 weeks): <0.05 % area
Impurity RRT 0.89 ([4]; 80° C. (c), 2 weeks): <0.05 % area
Impurity RRT 0.92 ([4]; 80° C. (c), 2 weeks): 0.13 % area
Impurity RRT 1.21 ([4]; 80° C. (c), 2 weeks): <0.05 % area
Main Peak ([4]; 80° C. (c), 2 weeks): 99.75 % Area
Total Impurities ([4]; 80° C. (c), 2 weeks): 0.25 % area
XRPD ([4]; 80° C. (c), 2 weeks): Consistent with Tris salt (Grp B)
Content ([4]; Initial): 101.2 % w/w
Impurity RRT 0.60 ([4]; Initial): <0.05 % area
Impurity RRT 0.86 ([4]; Initial): <0.05 % area
Impurity RRT 0.89 ([4]; Initial): <0.05 % area
Impurity RRT 0.92 ([4]; Initial): 0.13 % area
Impurity RRT 1.21 ([4]; Initial): <0.05 % area
Main Peak ([4]; Initial): 99.81 % Area
Total Impurities ([4]; Initial): 0.19 % area
XRPD ([4]; Initial): Consistent with Tris salt (Grp B)
